# Results taken from PMC3479139, “Diverse Small Molecule Inhibitors of Human Apurinic/Apyrimidinic Endonuclease APE1 Identified from a Screen of a Large Public Collection” (PLoS ONE, 2012).
# Where two headings read alike, the source gives them in different places.
# Key:
# [1] = biological target: T1, E. coli Endo IV (Escherichia coli, UniProt P0A6C1); assay: E. coli Endo IV profiling counterscreen; assay type: biochemical; details: for IC50: read-out: EndoIV IC50;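 on all read-outs here: selectivity counterscreen of candidate APE1 inhibitors against the bacterial endonuclease Endo IV, run in the same assay format as the primary APE1 high-throughput screen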
# T1 construct: made in house
# Text: (§1) In order to screen out nonselective compounds, such as non-specific DNA binders and inhibitors of related enzymes, we used a miniaturized ThO DNA displacement assay and a counterscreen against the bacterial endonuclease E. coli Endo IV, respectively, following the previously published protocols [21].
# To probe the selectivity of the candidate APE1 inhibitors, we tested them against E. coli EndoIV [36], employing the same assay as used in the HTS.
# [2] = biological target: T2, APE1 (Homo sapiens, UniProt P27695); assay: Fluorogenic kinetic qHTS APE1 incision assay (primary screen and retest of cherrypicked samples); assay type: biochemical;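 further: purified APE1 cleaving a fluorophore/dark-quencher labelled 17-mer duplex DNA bearing a tetrahydrofuran AP site, fluorescence rise followed kinetically over the first 2 min, inhibition normalized to controls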
# T2 construct: made in house
# [3] = biological target: double-stranded 17-mer DNA fragment; assay: ThO (Thiazole Orange) DNA displacement assay; assay type: binding;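 further: miniaturized displacement of the intercalating dye from unlabeled duplex DNA, used to flag nonspecific DNA binders, chiefly intercalators, groove binders may be missed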
# Text: The double-stranded 17-mer DNA fragment used in the ThO DNA binding assay was of the same sequence as the fluorogenic HTS substrate but carried no dye labels.
# as §1
# To detect screening hits that inhibit APE1 activity through non-specific DNA interactions, we employed a previously established miniaturized ThO dye displacement assay [21]. […] We note that the ThO assay reports primarily on DNA binders acting through intercalation, while potentially missing other types of DNA binders, such as those acting through the minor groove.
# [4] = biological target: T2, APE1; assay: Fluorescence polarization (FP) displacement assay of APE1 binding to AP-DNA probe; details: read-out: FP IC50;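 further: TAMRA 5′-labeled duplex DNA with THF abasic site (5 nM) and APE1 (20 nM), Mg2+-free buffer, 15 min at room temperature, inhibition seen as lowered polarization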
# Experimental: Double-stranded oligodeoxynucleotide containing tetrahydrofuran (THF) abasic site labeled with TAMRA at the 5′-end was used as the labeled binding probe. Inhibition of APE1 binding to labeled probe was detected by a decrease in the fluorescence polarization (FP) of the fluorophore. Briefly, 4 µL mixture of 20 nM APE1 and 5 nM probe contained in the enzymatic assay buffer from which Mg^2+ was omitted, was dispensed into 1536-well Greiner black solid bottom plates. Compounds (23 nL) were transferred via pintool, and after a 15-minute incubation at room temperature, fluorescence polarization was measured in a ViewLux High-throughput CCD imager (480 nm excitation and 540 nm emission) to determine the degree of probe displacement caused by the test compounds.
# [5] = biological target: T2, APE1; assay: Gel-based radiotracer (32P) APE1 incision assay; assay type: biochemical; design: concentration or dose not given beside the values; details: percent incision shown; entries 1-112;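 further: APE1 incision reactions ran 5 min at 37 °C, with cleaved product and intact substrate resolved electrophoretically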
# [6] = initial quantitative high-throughput screen, read-out: APE1 qHTS IC50
# [7] = retest of cherrypicked sample, read-out: APE1 Retest IC50
# T2 sequence (P27695 whole entry): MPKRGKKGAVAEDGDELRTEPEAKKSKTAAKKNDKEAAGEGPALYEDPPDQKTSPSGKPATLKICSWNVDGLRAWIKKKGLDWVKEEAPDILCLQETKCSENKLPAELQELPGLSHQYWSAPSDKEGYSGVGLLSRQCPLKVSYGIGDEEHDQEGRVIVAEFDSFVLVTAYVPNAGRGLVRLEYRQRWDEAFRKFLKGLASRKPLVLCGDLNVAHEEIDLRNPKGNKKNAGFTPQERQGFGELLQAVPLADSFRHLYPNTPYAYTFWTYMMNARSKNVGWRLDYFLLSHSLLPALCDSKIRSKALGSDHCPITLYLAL
Molecule,IC50 [1] [µM],"IC50 [2, 6] [µM]","IC50 [2, 7] [µM]",IC50 ([3]; read-out: ThO-DNA binding IC50) [µM],IC50 [4] [µM],Radiotracer Assay (%Activity) [5] [%],Concentration response against EndoIV [1],ThO assay signal behaviour (autofluorescence interference) [3],IC50 ([3]; read-out: ThO dye displacement IC50) [µM]
COc1ccc(N2Cc3cccc(C(=O)O)c3C2=O)cc1 [MLS000120697],> 57,12.6,3.9,> 57,7.9,37,,,
Cc1ccc2c(=O)c3ccccc3n(CCCN)c2c1C [NCGC00161415],,4.5,10,14.1,1.3,4.6,complete concentration response curves,,
C[C@@]1(C(=O)O)NCCc2cc(O)c(O)cc21 [NCGC00024700],> 57,1.8,,> 57,> 57,17.1,,,
O=C(CCc1n[nH]c(=O)[nH]c1=O)N/N=C/c1ccco1 [MLS000685551],> 57,19.9,12.6,> 57,> 57,33,,,
CC(=O)[C@]1(O)Cc2c(O)c3c(c(O)c2[C@@H](O[C@H]2C[C@H](N)[C@H](O)[C@H](C)O2)C1)C(=O)c1ccccc1C3=O [NCGC00093976],25.1,19.9,14.1,,3.2,4.6,,strong dose-dependent fluorescence signal increase,
Cc1ccc(NC(=O)CN2C(=O)N/C(=C\c3cccn3-c3cccc(C(=O)O)c3)C2=O)cc1 [MLS000686355],> 57,3.5,1.4,> 57,14.1,15,,,
O=C(O)C[C@@H]1C(=O)O[C@@H]2C(COC(=O)c3cc(O)c(O)c(O)c3)O[C@@H](OC(=O)c3cc(O)c(O)c(O)c3)[C@@H](OC(=O)c3cc(O)c(O)c4c3[C@H]1[C@H](O)C(=O)O4)[C@H]2OC(=O)c1cc(O)c(O)c(O)c1 (some centres unmarked) [MLS000697665],> 57,0.01,0.01,0.4,14.1,29,,,
O=C1CCCC(O)=C1N=Nc1cccc(C(=O)O)c1 [MLS000759952],> 57,10,12.6,> 57,> 57,10,,,
O=C(O)c1cccc(-c2ccc(/C=c3/sc4nc5ccccc5n4c3=O)o2)c1 [MLS000777053],> 57,10,5,6.3,7.9,23,,,
CN(C)C(=O)Nc1ccc(Cl)c(Cl)c1 [NCGC00094525],> 57,20,44.7,> 57,> 57,36.6,,,
O=c1c(O)c(Br)ccc2c(Br)c(O)c(O)c(O)c12 [NCGC00160279],> 57,1.1,0.4,1.26,> 57,37.9,,,
COc1cc(/C=N/Nc2ccc(C(=O)O)cc2)ccc1O [MLS000685676],> 57,14.1,14.1,> 57,> 57,50,,,
CC(=O)OCC1=C(C(=O)[O-])N2C(=O)C(NC(=O)CCCC(N)C(=O)O)C2SC1.[Na+] (centres unmarked) [NCGC00094863],> 57,22.4,,> 57,> 57,41,,,
O=C(OCC1O[C@@H](OC(=O)c2cc(O)c(O)c(O)c2)[C@@H](OC(=O)c2cc(O)c(O)c(O)c2)[C@@H](OC(=O)c2cc(O)c(O)c(O)c2)[C@@H]1OC(=O)c1cc(O)c(O)c(O)c1)c1cc(O)c(O)c(O)c1 (some centres unmarked) [MLS000574902],> 57,0.01,0.006,4,> 57,8,,,
phthalocyanine tetrasulfonate hydrate [NCGC00165867],,0.3,0.06,0.6,0.2,6.2,complete concentration response curves,,0.631
Cc1ccc(NC(=O)CN2C(=O)S/C(=C\c3cccn3-c3cccc(C(=O)O)c3)C2=O)c(C)c1 [MLS000540800],> 57,8.9,12.6,> 57,15.8,0,,,
CC(=O)N[C@H]1C(O[C@@H]2O[C@H](C[C@@H](O)[C@H]3O[C@@H](N4CCC(=O)NC4=O)[C@H](O)[C@@H]3O)[C@H](O)[C@H](O)[C@H]2NC(=O)/C=C/CCCCCCCCCCC(C)C)OC(CO)[C@@H](O)[C@@H]1O (some centres unmarked) [NCGC00161652],> 57,7.9,2.5,> 57,31.6,26.5,,,
O=C(O)CCCN1C(=O)/C(=C/C=C/c2ccco2)SC1=S [MLS000778631],> 57,35.5,5,> 57,> 57,41,,,
O=C(NN1C(=O)/C(=C/C=C/c2ccco2)SC1=S)c1ccncc1 [MLS000762704],> 57,4.5,4.5,> 57,> 57,36,,,
CC(C)C(C(=O)O)N1C(=O)/C(=C/C=C/c2ccco2)SC1=S (centres unmarked) [MLS000551672],> 57,1.6,2.5,> 57,11.2,19,,,
O=C(c1cc(C(=O)c2ccco2)cc(C(=O)c2ccco2)c1)c1ccco1 [MLS000699310],> 57,31.6,5,> 57,> 57,6,,,
COc1cc(O)c2c(c1)oc(=O)c1c3cc(O)c(O)cc3oc21 [NCGC00163667],> 57,10,4.4,10,> 57,8.4,,,
O=C(/C=C/c1ccco1)NCc1ccco1 [MLS000768482],> 57,22.4,4.5,> 57,> 57,21,,,
Cc1cccc(N2NC(=O)/C(=C/c3ccc(-c4ccc(Cl)c(C(=O)O)c4)o3)C2=O)c1 [MLS000621664],> 57,17.8,12.6,> 57,> 57,32,,,
O=C(N/N=C/c1cccn1-c1cccc(C(=O)O)c1)Nc1ccccc1 [MLS000588622],> 57,5,3.5,> 57,> 57,32,,,
O=C1CCCC(O)=C1N=Nc1ccc(C(=O)O)cc1 [MLS000759943],> 57,8.9,10,> 57,> 57,47,,,
O=C(CCCN1C(=O)/C(=C/c2ccco2)SC1=S)Nc1ccccc1C(=O)O [MLS000778775],> 57,19.9,12.6,> 57,5,3,,,
